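Method: 48-hour compound exposure of cells in 96-well plates, five concentrations, linear interpolation of endpoints. GI50: concentration for 50% inhibition of growth. TGI: total growth inhibition.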 Where only a bound is given, the exact number is not on record here.

What all share (test): growth of human tumour cells (NCI), 48 h
For test [1], the system named is A549 NSCLC.
Test [2] relates to SR leukemia.
Test [3] concerns EKVX NSCLC.
Test [4] deals with HCT-116 colon.
The test system of test [5] is SK-OV-3 ovarian.
In test [6] the test system is UO-31 renal.
Test [7] deals with SNB-19 CNS.
Test [8] has as its system DU-145 prostate.
For test [9], the system named is MDA-MB-231 breast.
For test [10], the system named is HL-60(TB) leukemia.

For the compound `Nc1nc2c(nnn2C2C=C(CO)C(O)C2O)c(=O)[nH]1` (configuration not stated), the TGI in test [1], in [2], in test [3], in test [4], in test [5] and in test [6] was greater than 100 µM in each case. In test [7], this compound gave a TGI greater than 100 µM.
As for `Cc1ccc2c(=O)cc(-c3ccccc3)[nH]c2n1`, the TGI in test [1] was greater than 100 µM; in [3] it was greater than 100 µM; in [4], 59.4 µM; in [8], greater than 23.7 µM; in [5], greater than 21 µM; in test [9] it was 22.8 µM. Further, the TGI in test [6] was greater than 81.8 µM; in [7] it was greater than 100 µM.
Take `Nc1nc(Cl)cc(OCC2(CO)CCCCC2)n1`: the TGI in test [1], in test [10], in test [2], in test [3], in test [4] and in test [8] was greater than 100 µM throughout. In test [7], the TGI is greater than 100 µM.
Take `c1ccc(C2SCc3nc4ccccc4n32)cc1` (configuration not stated): the TGI is greater than 100 µM in test [1]; 46.5 µM in test [10]; greater than 100 µM in test [2]; greater than 100 µM in [3]; greater than 100 µM in test [4]; greater than 100 µM in test [5]. For the same compound, the TGI in [6] and in test [7] was greater than 100 µM throughout.
With `CCOC(=O)C1=C(C)NC(c2ccccc2)=C(C(=O)OCc2ccccc2)C1C#Cc1ccccc1` (configuration not stated), the TGI in test [10], in test [2], in [3], in test [4], in test [8] and in test [5] was greater than 100 µM throughout. Besides, the TGI in [6] and in test [7] was greater than 100 µM each time.
As for `CCN1CC2(CO)CCC(OC)C34C5CC6C(OC)CC(O)(C5C6OC)C(O)(C(OC)C23)C14` (configuration not stated), the TGI in [1] is greater than 375 µM; in [10] it was greater than 375 µM; in test [3] it was greater than 65 µM; in test [4], greater than 375 µM; in test [5], greater than 375 µM; in [6] it was greater than 375 µM. The same compound gave a TGI in [7] greater than 375 µM.
Consider `N#Cc1ccccc1C#C/C=C\C#Cc1ccccn1`, for which the TGI came out at 56.5 µM in test [1]; 63.6 µM in test [10]; 36.2 µM in [2]; 57.7 µM in [3]; 24.3 µM in [4]; 83.5 µM in test [8]. In addition, the TGI amounted to 76.7 µM in [5], 32.3 µM in test [6] and 69.3 µM in test [7].
`C#CCN(Cc1ccc2nc(-c3ccccc3)c(Cl)nc2c1)c1ccc(Cl)c(Cl)c1`: the TGI in test [1], in test [10], in test [2], in [3], in test [4] and in test [5] was greater than 100 µM in each case. Also, the TGI in [6] and in test [7] was greater than 100 µM throughout.
Regarding `Cc1ccc(C2=C(c3ccccc3)C(O)(c3ccccc3)C(c3ccccc3)=C2c2ccc(C)cc2)cc1`, the TGI in [1], in [2], in test [3], in test [4], in [5] and in test [6] was greater than 100 µM each time. The compound also displayed a TGI in test [7] greater than 100 µM.
Regarding `CCCN1CCN(c2ccc3nc(-c4ccc5nc(-c6ccc(OCC)cc6)[nH]c5c4)[nH]c3c2)CC1`, the GI50 in test [10] was 1080 nM; in [2], 404 nM; in test [8] it was 1330 nM; in test [5] it was 1330 nM; in test [6], 14.3 µM. The TGI in test [10] is 3.55 µM; in [2] it was 2.58 µM; in test [8] it was 2.78 µM; in test [5] it was 3.37 µM; in test [6], 43.9 µM.
Consider `Cc1nc2cc3[nH]c4ccccc4c(=O)c3cc2s1`, for which the TGI in test [1], in test [10], in test [2], in test [3], in test [4] and in test [5] was greater than 100 µM throughout. The TGI in test [6] and in test [7] was greater than 100 µM in each case.
Turning to `C=C1C(=O)OC2C=C(C)CC3C=C(CCC=C(C)CCC12)C(=O)O3` (configuration not stated), the TGI in [1] was found to be 203 µM; in test [10] it was 73.4 µM; in test [3] it was 118 µM; in test [4], 85.6 µM; in test [5], 280 µM; in [6], 234 µM. In [7], this compound yielded a TGI of 271 µM.
As to `Nc1ccc2ncc(NCc3ccc(F)cc3)nc2c1`, the TGI in test [1], in test [10], in test [2], in [3], in test [4] and in [5] was greater than 100 µM throughout. Further, the TGI in [6] and in [7] was greater than 100 µM throughout.
For `Cc1cccc(N=Nc2ccc(O)c(CN(C)C)c2)c1`, the TGI in test [1] was greater than 100 µM; in test [10] it was 54.2 µM; in test [2], greater than 100 µM; in test [3], 58.1 µM; in test [4], greater than 100 µM; in test [5] it was greater than 100 µM. Further, the TGI in test [9] is greater than 100 µM; in test [6] it was 51.5 µM; in [7], greater than 100 µM.
Take `C#CCN1C(=O)CN2C(Cl)(Cl)C2(c2ccccc2)c2cc(Cl)ccc21` (configuration not stated): the TGI in test [2], in test [3], in test [4] and in test [6] was greater than 100 µM in each case.
Turning to `CC(=O)Nc1ccc(S(=O)(=O)Nc2cnc3ccccc3n2)cc1`, the TGI in [1], in test [10], in test [2], in test [3], in test [5] and in test [6] was greater than 100 µM in each case. In test [7], the TGI is greater than 100 µM.

These data come from PubChem BioAssay (NCI).
